Source: patent US12686690B2, “Macrocyclic urea orexin receptor agonists” (Merck Sharp & Dohme LLC, priority 2020, dated 2026)

Target: T1, hOX2R (Homo sapiens, UniProt O43614)
T1 construct: expressed in transfected cells; host or cells: CHO cells (G418 selection)
T1 sequence (O43614 1-444): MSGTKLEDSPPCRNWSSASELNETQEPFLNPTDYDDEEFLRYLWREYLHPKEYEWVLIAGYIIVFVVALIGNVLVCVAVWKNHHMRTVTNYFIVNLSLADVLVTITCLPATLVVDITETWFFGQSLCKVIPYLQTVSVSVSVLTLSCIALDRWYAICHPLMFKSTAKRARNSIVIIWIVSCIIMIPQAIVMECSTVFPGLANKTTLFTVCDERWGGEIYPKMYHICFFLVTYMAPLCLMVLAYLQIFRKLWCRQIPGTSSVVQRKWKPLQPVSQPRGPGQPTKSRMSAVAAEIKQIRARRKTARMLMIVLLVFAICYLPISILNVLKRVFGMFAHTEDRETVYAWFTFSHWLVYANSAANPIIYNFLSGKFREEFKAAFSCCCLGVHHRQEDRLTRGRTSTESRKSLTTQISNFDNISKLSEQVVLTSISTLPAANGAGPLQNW
Test: hOX2R IPone assay (orexin receptor agonism)
Assay type: cell-based
Details: IPone readout; for hOX2R_Ipone max %act: maximal activation; for EC50: orexin receptor agonist, read-out: hOX2R_IPone EC50

Structure (SMILES)	hOX2R_Ipone max %act	EC50
CCN1Cc2cc(ccn2)-c2cn3ccnc3c(n2)OCCCCC[C@H](CCC(F)(F)F)NC1=O [Example 120, (16R)-13-ethyl-16-(3,3,3-trifluoropropyl)-12,13,16,17,18,19,20,21-octahydro-6,23-(azeno)-11,7-(metheno)imidazo[2,1-c][1,4,10,13,15]oxatetraazacyclohenicosin-14(15H)-one]	98.4%	17.7 nM
CCN1C(=O)N[C@@H](CCC(F)(F)F)CCCCCOc2nc(cn3ccnc23)C2=NC=C(O2)C1C (single isomer, unassigned) [Example 104A]	60.9%	4910 nM
CCN1C(=O)N[C@@H](CCC(F)(F)F)CCCCCOc2nc(cn3ccnc23)-c2cc(ccn2)[C@@H]1C [Example 113A, (12S,16R)-13-ethyl-12-methyl-16-(3,3,3-trifluoropropyl)-12,13,16,17,18,19,20,21-octahydro-6,23-(azeno)-11,7-(metheno)imidazo[2,1-c][1,4,8,13,15]oxatetraazacyclohenicosin-14(15H)-one]	98.1%	105 nM
CCN1C(=O)NC(CC2CCCC2)CCCCCOc2nc(cn3ccnc23)-c2cc(ncc2OC)[C@H]1C (single isomer, unassigned) [Example 65A]	102.4%	13.5 nM
CCN1C(=O)N[C@@H](CCC(F)(F)F)CCCCCOc2nc(cn3ccnc23)-c2cc(C)nc(c2)[C@@H]1C [Example 107A, (12S,16R)-13-ethyl-9,12-dimethyl-16-(3,3,3-trifluoropropyl)-12,13,16,17,18,19,20, 21-octahydro-6,23-(azeno)-11,7-(metheno)imidazo[2,1-c][1,4,10,13,15] oxatetraazacycloheni-cosin-14(15H)-one]	92.7%	166 nM
CCN1C(=O)NC(c2ccon2)CCCCCOc2nc(cn3ccnc23)-c2cccc(c2)[C@H]1C (mixture of isomers) [Example 20, (12R)-13-ethyl-12-methyl-16-(1,2-oxazol-3-yl)-12,13,16,17,18,19, 20,21-octahydro-6,23-(azeno)-11,7-(metheno) imidazo[2,1-c][1,4,13,15]oxa-triazacyclohenicosin-14(15H)-one]	98.31%	9.5 nM
CCN1C(=O)N[C@@H](CCC(F)F)CCCCCOc2nc(cn3ncnc23)-c2cc(ncc2Cl)[C@H]1C [Example 128, (3R,7R,E)-25-chloro-7-(3,3-difluoropropyl)-4-ethyl-3-methyl-13-oxa-4,6-diaza-1(6,8)-[1,2,4]triazolo[1,5-a]pyrazina-2(4,2)-pyridinacyclotridecaphan-5-one]	102.9%	11.2 nM
CCN1C(=O)NC(CC(C)C)CCCCCOc2nc(cn3ccnc23)-c2cc(ncc2OC)[C@H]1C (single isomer, unassigned) [Example 53A]	101.5%	55.7 nM
CCN1C(=O)NCCN(C)CCC(C)Oc2nc(cn3ccnc23)-c2cccc(c2)[C@H]1C (mixture of isomers) [Example 16, (12R)-13-ethyl-12,18,21-trimethyl-12,13, 16,17,18,19,20,21-octahydro-6,23-(azeno)-11,7-(metheno) imidazo[2,1-c][1,4,13,15,18]oxa-tetraazacyclo-henicosin-14(15H)-one]	77.7%	3880 nM
CCN1C(=O)NC(CCCOC)CCCCCOc2nc(cn3ccnc23)-c2cc(ncc2OC)[C@H]1C (single isomer, unassigned) [Example 60A]	100.4%	52.1 nM

The next molecules have a lower EC50 than those just listed; values first:

hOX2R_Ipone max %act	EC50	Structure (SMILES)
100.6%	8.6 nM	CCN1C(=O)NC(CCOC(F)(F)F)CCCCCOc2nc(cn3ccnc23)-c2cc(ncc2OC)[C@H]1C (single isomer, unassigned) [Example 73A]
100.8%	8.24 nM	CCN1C(=O)N[C@@H](CCC(F)(F)F)CCOCCOc2nc(cn3ncnc23)-c2c(OC)cnc(c2F)C1C (stereo partly drawn) [Example 179, (7S,E)-4-ethyl-23-fluoro-25-methoxy-3-methyl-7-(3,3,3-trifluoropropyl)-10,13-dioxa-4,6-diaza-1(6,8)-[1,2, 4]triazolo[1,5-a]pyrazina-2(4,2)-pyridinacyclotridecaphan-5-one]
94.4%	6.6 nM	CCN1C(=O)NC(c2cscn2)CCCCCOc2nc(cn3ccnc23)-c2cccc(c2)[C@H]1C (single isomer, unassigned) [Example 19B]
104.8%	5.9 nM	CCN1C(=O)N[C@@H](CCC(F)(F)F)CCCCCOc2nc(cc3cccnc23)-c2cc(ncc2OC)[C@H]1C [Example 162, (3R,7R)-4-ethyl-25-methoxy-3-methyl-7-(3,3,3-trifluoropropyl)-13-oxa-4,6-diaza-1(6,8)-naphthyridina-2(4,2)-pyridinacyclotridecaphan-5-one]
100.5%	5.1 nM	CCN1C(=O)NCCCCCCOc2nc(cn3ccnc23)-c2cc(ncc2OC)[C@H]1C [Example 85, (12R)-13-ethyl-8-methoxy-12-methyl-12,13,16,17,18,19,20, 21-octahydro-6,23-(azeno)-11,7-(metheno)imidazo[2,1-c][1,4,10,13,15] oxatetraazacycloheni-cosin-14(15H)-one]
99.7%	4.5 nM	CCN1C(=O)N[C@@H](CCC(F)(F)F)CCCCOc2nc(cn3ccnc23)-c2ccnc(c2)[C@H]1C [Example 29B, (12R,16R)-13-ethyl-12-methyl-16-(3,3,3-trifluoropropyl)-12,13,15,16,17, 18,19,20-octahydro-14H-6,22-(azeno)-11,7-(metheno) imidazo[2,1-c][1,4,10,13,15] oxatetraazacyclo-icosin-14-one]
100.1%	3.3 nM	CCN1C(=O)N[C@@H](CCC(F)(F)F)CCCCCCc2nc(cn3ccnc23)-c2cc(ncc2OC)[C@H]1C [Example 81, (12R,16R)-13-ethyl-8-methoxy-12-methyl-16-(3,3,3-trifluoropropyl)-12,13,15,16,17,18,19, 20,21,22-decahydro-14H-6,23-(azeno)-11,7-(metheno) imidazo[1,2-l][1,3,6,12]tetraazacy-clohenicosin-14-one]
99.72%	2.68 nM	CCN1C(=O)N[C@@H](CCC(F)(F)F)CCCCCOc2cc(cc3cccnc23)-c2cc(ncc2OC)[C@H]1C [Example 157, (3R,7R)-4-ethyl-25-methoxy-3-methyl-7-(3,3,3-trifluoropropyl)-13-oxa-4,6-diaza-1(6,8)-quinolina-2(4,2)-pyridinacyclotridecaphan-5-one]
100.1%	2.4 nM	CCN1C(=O)N[C@@H](CCC(F)(F)F)CCCCCOc2nc(cn3ccnc23)-c2cc(C)nc(c2)[C@H]1C [Example 107B, (12R,16R)-13-ethyl-9,12-dimethyl-16-(3,3,3-trifluoropropyl)-12,13,16,17,18,19,20, 21-octahydro-6,23-(azeno)-11,7-(metheno)imidazo[2,1-c][1,4,10,13,15] oxatetraazacycloheni-cosin-14(15H)-one]
100.2%	1.41 nM	CCN1Cc2cnc(OC)c(c2)-c2nc(c3nccn3n2)OCCCCC[C@H](CCC(C)(F)F)NC1=O [Example 125, (R,E)-7-(3,3-difluorobutyl)-4-ethyl-22-methoxy-13-oxa-4,6-diaza-1(2,4)-imidazo[2,1-f][1,2,4]triazina-2(3,5)-pyridinacyclotridecaphan-5-one]
106.1%	1.05 nM	CCN1C(=O)N[C@@H](CCS(C)(=O)=O)CCCCCOc2nc(cn3ncnc23)-c2cc(ncc2OC)[C@H]1C [Example 154, (3R,7R,E)-4-ethyl-25-methoxy-3-methyl-7-(2-(methylsulfonyl)ethyl)-13-oxa-4,6-diaza-1(6,8)-[1,2,4]triazolo[1,5-a]pyrazina-2(4,2)-pyridinacyclotridecaphan-5-one]
100.4%	1 nM	CCN1Cc2ccc(OC)c(c2)-c2cn3ccnc3c(n2)OCCCC[C@H](CCC(F)(F)F)NC1=O [Example 44, (16R)-13-ethyl-8-methoxy-16-(3,3,3-trifluoropropyl)-12,13,15,16,17,18,19,20-octahydro-14H-6,22-(azeno)-11,7-(metheno)imidazo[2,1-c][1,4,13,15]oxatriaza-cycloicosin-14-one]
101%	1 nM	CCN1C(=O)NC(CCOC)CCCCCOc2nc(cn3ccnc23)-c2cc(ncc2OC)[C@H]1C (single isomer, unassigned) [Example 56B]
100.9%	0.9 nM	CCN1C(=O)NC(CC2CC2(F)F)CCCCCOc2nc(cn3ccnc23)-c2cc(ncc2OC)[C@H]1C (single isomer, unassigned) [Example 59D]
101.1%	0.9 nM	CCN1C(=O)NC(COC)CCCCCOc2nc(cn3ccnc23)-c2cc(ncc2OC)[C@H]1C (single isomer, unassigned) [Example 58B]
100.7%	0.5 nM	CCN1C(=O)NC(CCC(F)(F)F)CCC(F)(F)CCOc2nc(cn3ccnc23)-c2cc(ncc2OC)[C@H]1C (single isomer, unassigned) [Example 121B]
